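Compound exposure: 48 hours, 5 concentrations, 96-well plates. At the GI50, growth is halved.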 The source made the active and inactive calls. No stated cut-off is given here; in the data, active = GI50 up to about 1.1 µM and inactive = higher.
What was measured:
Assay in all cases: NCI-60 cell line screen, 48 h
HCC 2998 = test system: HCC 2998
OVCAR-4 = test system: OVCAR-4
A549 = test system: A549
SK-OV-3 = test system: SK-OV-3
PC-3 = test system: PC-3
SR = test system: SR
MCF7 = test system: MCF7
OVCAR-5 = test system: OVCAR-5
MDA-MB-231 = test system: MDA-MB-231
COLO 205 = test system: COLO 205
UACC-257 = test system: UACC-257
MDA-MB-435 = test system: MDA-MB-435
OVCAR-8 = test system: OVCAR-8
UACC-62 = test system: UACC-62
OVCAR-3 = test system: OVCAR-3
DU-145 = test system: DU-145
786-0 = test system: 786-0
Hs-578T = test system: Hs-578T
HL-60 = test system: HL-60

Measured: GI50

CCN(C(=O)N[C@@H](Cc1ccccc1)C(=O)N[C@@H](CC(C)C)C(=O)OC)c1ccccc1
inactive: HCC 2998 30.8 µM | OVCAR-4 28.1 µM | A549 30.5 µM | SK-OV-3 40.6 µM | PC-3 35.1 µM | SR 6.18 µM | MCF7 24 µM | OVCAR-5 23.2 µM | MDA-MB-231 55.7 µM | COLO 205 18 µM | UACC-257 23.2 µM | MDA-MB-435 51.6 µM | OVCAR-8 15.3 µM | UACC-62 17.7 µM | OVCAR-3 26.5 µM | DU-145 17.3 µM | 786-0 19.8 µM

C=C(C(=O)O)C1CCC(CC/C=C(\C)CC/C=C(\C)CCC=C(C)C)CO1 (configuration not stated)
inactive: OVCAR-4 27.4 µM | A549 7.89 µM | SK-OV-3 82.2 µM | PC-3 24.8 µM | MCF7 5.97 µM | OVCAR-5 18 µM | Hs-578T 12 µM | MDA-MB-231 42.7 µM | COLO 205 11.2 µM | UACC-257 15.3 µM | MDA-MB-435 18 µM | OVCAR-8 18.8 µM | UACC-62 40 µM | DU-145 17.5 µM | HL-60 4.01 µM | 786-0 11 µM

COc1c2cc(C(C)(C)C)cc1Cc1cccc(c1O)Cc1cc(C(C)(C)C)cc(c1OC)Cc1cccc(c1O)Cc1cc(C(C)(C)C)cc(c1OC)Cc1cccc(c1O)C2
inactive: HCC 2998 > 100 µM | A549 > 100 µM | PC-3 > 100 µM | SR > 100 µM | MCF7 > 100 µM | OVCAR-5 > 100 µM | MDA-MB-231 > 100 µM | COLO 205 > 100 µM | UACC-257 96.6 µM | MDA-MB-435 > 100 µM | OVCAR-8 > 100 µM | UACC-62 > 100 µM | OVCAR-3 > 100 µM | DU-145 > 100 µM | HL-60 > 100 µM | 786-0 > 100 µM

CCOC(=O)c1nc2ccc(C(F)(F)F)cc2nc1Oc1cc(OC)c(OC)c(OC)c1
inactive: OVCAR-4 2.64 µM | A549 53.7 µM | SK-OV-3 > 100 µM | PC-3 > 100 µM | MCF7 > 100 µM | OVCAR-5 97.9 µM | Hs-578T 16.8 µM | MDA-MB-231 87.7 µM | COLO 205 17.7 µM | UACC-257 40.4 µM | MDA-MB-435 > 100 µM | OVCAR-8 38.3 µM | UACC-62 94.8 µM | OVCAR-3 > 100 µM | DU-145 46.8 µM | HL-60 > 100 µM | 786-0 13.5 µM

O=C1CSC2(CC(/C=C/C=C/c3ccccc3)=NN2c2cccc(S(=O)(=O)O)c2)N1c1nc2ccccc2s1 (configuration not stated)
inactive: HCC 2998 69.7 µM | OVCAR-4 36.9 µM | A549 50.8 µM | PC-3 37.3 µM | SR 21.2 µM | MCF7 29.6 µM | OVCAR-5 > 100 µM | MDA-MB-231 31.3 µM | COLO 205 50.8 µM | UACC-257 40.6 µM | MDA-MB-435 21.6 µM | OVCAR-8 42.1 µM | UACC-62 35.2 µM | HL-60 4.24 µM | 786-0 40.2 µM

CC/C(=C\c1ccc(OC)cc1)c1ccc(OC)cc1
inactive: HCC 2998 > 100 µM | OVCAR-4 > 100 µM | A549 > 100 µM | SK-OV-3 > 100 µM | PC-3 > 100 µM | MCF7 > 100 µM | OVCAR-5 66.7 µM | Hs-578T > 100 µM | MDA-MB-231 > 100 µM | COLO 205 > 100 µM | UACC-257 38.5 µM | MDA-MB-435 45.7 µM | OVCAR-8 > 100 µM | UACC-62 > 100 µM | OVCAR-3 > 100 µM | DU-145 > 100 µM | 786-0 94.2 µM

CN(C)/N=N/c1ccc2[nH]c(=O)[nH]c2c1
inactive: HCC 2998 > 100 µM | OVCAR-4 > 100 µM | A549 > 100 µM | SK-OV-3 > 100 µM | PC-3 > 100 µM | MCF7 > 100 µM | OVCAR-5 > 100 µM | Hs-578T > 100 µM | MDA-MB-231 > 100 µM | COLO 205 > 100 µM | UACC-257 > 100 µM | MDA-MB-435 > 100 µM | OVCAR-8 > 100 µM | UACC-62 > 100 µM | OVCAR-3 > 100 µM | DU-145 > 100 µM | HL-60 19.2 µM | 786-0 > 100 µM

CNC(=S)/C(C#N)=C(\N)N1CCCC1
inactive: HCC 2998 > 100 µM | A549 > 100 µM | SK-OV-3 > 100 µM | PC-3 > 100 µM | SR > 100 µM | OVCAR-5 > 100 µM | Hs-578T > 100 µM | MDA-MB-231 > 100 µM | COLO 205 > 100 µM | MDA-MB-435 > 100 µM | OVCAR-8 > 100 µM | UACC-62 > 100 µM | OVCAR-3 > 100 µM | DU-145 > 100 µM | HL-60 > 100 µM | 786-0 > 100 µM

From ChEMBL document CHEMBL1201862, “PubChem BioAssay data set” (2004)
